The text below walks through data of US20210079015A1, “NOVEL DIHYDROISOXAZOLE COMPOUNDS AND THEIR USE FOR THE TREATMENT OF HEPATITIS B” (Novartis AG, priority 2017, published 2021).

The test relates to HBV. The experiment in a line: Anti-HBV assay (inhibition of HBV replication in HepG2.cl42 cells, HBV DNA by qPCR). The test is classed as cell-based, HBV ayw strain. To be noted: Hepatitis B virus, 96 h, treated four days, HBV DNA quantified by real time PCR, read-out: HBsAg EC50. On the technique in general: Quantitative PCR measures a nucleic acid by following its amplification.

A value given as a limit tells only on which side of the number the result lay.

For the compound `O=C(Nc1cc(F)c(F)c(F)c1)N1CCc2noc(-c3ccc(F)cc3F)c2C1` [Compound 1.1, 3-(2,4-difluorophenyl)-N-(3,4,5-trifluorophenyl)-6,7-dihydroisoxazolo[4,3-c]pyridine-5(4H)-carboxamide], the EC50 lay within 100 to 1000 nM.
As for `O=C(Nc1cc(F)c(F)c(F)c1)N1CCc2noc(C3CCCCC3)c2C1` [Compound 2.1, 3-cyclohexyl-N-(3,4,5-trifluorophenyl)-6,7-dihydroisoxazolo[4,3-c]pyridine-5(4H)-carboxamide], the figure is 100 to 1000 nM.
As for `CC1Cc2noc(-c3ccc(F)cc3F)c2CN1C(=O)Nc1cc(F)c(F)c(F)c1` (stereo not drawn) [Compound 3.1, 3-(2,4-difluorophenyl)-6-methyl-N-(3,4,5-trifluorophenyl)-6,7-dihydroisoxazolo[4,3-c]pyridine-5(4H)-carboxamide], the EC50 lay within 100 to 1000 nM.
For `C[C@H]1Cc2noc(-c3ccc(F)cc3F)c2CN1C(=O)Nc1cc(F)c(F)c(F)c1` [Compound 3.1-I, (S)-3-(2,4-difluorophenyl)-6-methyl-N-(3,4,5-trifluorophenyl)-6,7-dihydroisoxazolo[4,3-c]pyridine-5(4H)-carboxamide], the concentration giving a half-maximal response (EC50) is less than 100 nM.
With `C[C@@H]1Cc2noc(-c3ccc(F)cc3F)c2CN1C(=O)Nc1cc(F)c(F)c(F)c1` [Compound 3.1-II, (R)-3-(2,4-difluorophenyl)-6-methyl-N-(3,4,5-trifluorophenyl)-6,7-dihydroisoxazolo[4,3-c]pyridine-5(4H)-carboxamide] the figure was 100 to 1000 nM.
With `CC1c2c(noc2-c2ccc(F)cc2F)CCN1C(=O)Nc1cc(F)c(F)c(F)c1` (stereo not drawn) [Compound 4.1, 3-(2,4-difluorophenyl)-4-methyl-N-(3,4,5-trifluorophenyl)-6,7-dihydroisoxazolo[4,3-c]pyridine-5(4H)-carboxamide] the figure was no less than 1000 nM; with `O=C(Nc1cc(F)c(F)c(F)c1)N1CCc2noc(N3CCCC3=O)c2C1` [Compound 5.1, 3-(2-oxopyrrolidin-1-yl)-N-(3,4,5-trifluorophenyl)-6,7-dihydroisoxazolo[4,3-c]pyridine-5(4H)-carboxamide], 100 to 1000 nM.
With `O=C(Nc1cc(F)c(F)c(F)c1)N1CCc2noc(N3CCOC3=O)c2C1` [Compound 5.2, 3-(2-oxooxazolidin-3-yl)-N-(3,4,5-trifluorophenyl)-6,7-dihydroisoxazolo[4,3-c]pyridine-5(4H)-carboxamide] the figure was 100 to 1000 nM; with `O=C(Nc1cc(F)c(F)c(F)c1)N1CCc2noc(N3CCCC3)c2C1` [Compound 5.3, 3-(pyrrolidin-1-yl)-N-(3,4,5-trifluorophenyl)-6,7-dihydroisoxazolo[4,3-c]pyridine-5(4H)-carboxamide], no less than 1000 nM; with `O=C(Nc1cc(F)c(F)c(F)c1)C1CCc2noc(-c3ccc(F)cc3F)c2C1` (stereo not drawn) [Compound 6.1, 3-(2,4-difluorophenyl)-N-(3,4,5-trifluorophenyl)-4,5,6,7-tetrahydrobenzo[c]isoxazole-5-carboxamide], 100 to 1000 nM.
With `O=C(Nc1cc(F)c(F)c(F)c1)N1CCc2onc(-c3ccc(F)cc3F)c2C1` [Compound 7.1, 3-(2,4-difluorophenyl)-N-(3,4,5-trifluorophenyl)-6,7-dihydroisoxazolo[4,5-c]pyridine-5(4H)-carboxamide], the EC50 lay within 100 to 1000 nM.
As for `C[C@H]1Cc2noc(N3CCCC3=O)c2CN1C(=O)Nc1cc(F)c(F)c(F)c1` [Compound 8.1, (S)-6-methyl-3-(2-oxopyrrolidin-1-yl)-N-(3,4,5-trifluorophenyl)-6,7-dihydroisoxazolo[4,3-c]pyridine-5(4H)-carboxamide], the figure is less than 100 nM.
With `COc1ccc(-c2onc3c2CN(C(=O)Nc2cc(F)c(F)c(F)c2)[C@@H](C)C3)cc1` [Compound 9, (S)-3-(4-methoxyphenyl)-6-methyl-N-(3,4,5-trifluorophenyl)-6,7-dihydroisoxazolo[4,3-c]pyridine-5(4H)-carboxamide] the figure was less than 100 nM.
With `C[C@H]1Cc2noc(-c3ccccc3F)c2CN1C(=O)Nc1cc(F)c(F)c(F)c1` [Compound 10] the figure was 100 to 1000 nM; with `Cc1ccc(-c2onc3c2CN(C(=O)Nc2cc(F)c(F)c(F)c2)[C@@H](C)C3)cc1` [Compound 11], 100 to 1000 nM.
For the compound `C[C@H]1Cc2noc(-c3ccccc3Cl)c2CN1C(=O)Nc1cc(F)c(F)c(F)c1` [Compound 12], the EC50 fell in the range of 100 to 1000 nM.
On to `C[C@H]1Cc2noc(-c3ccc(F)cc3)c2CN1C(=O)Nc1cc(F)c(F)c(F)c1` [Compound 13], for which the EC50 lay in the range of 100 to 1000 nM.
With `C[C@H]1Cc2noc(-c3cccc(C#N)c3)c2CN1C(=O)Nc1cc(F)c(F)c(F)c1` [Compound 14], the EC50 was in the range of 100 to 1000 nM.
In the case of `C[C@H]1Cc2noc(-c3ccccc3)c2CN1C(=O)Nc1cc(F)c(F)c(F)c1` [Compound 15], the EC50 was 100 to 1000 nM.
As for `C[C@H]1Cc2noc(-c3ccc(OC(F)(F)F)cc3)c2CN1C(=O)Nc1cc(F)c(F)c(F)c1` [Compound 16], the figure is 100 to 1000 nM.
As for `Cc1ccccc1-c1onc2c1CN(C(=O)Nc1cc(F)c(F)c(F)c1)[C@@H](C)C2` [Compound 17], the figure is 100 to 1000 nM.
With `C[C@H]1Cc2noc(-c3ccc(Cl)cc3)c2CN1C(=O)Nc1cc(F)c(F)c(F)c1` [Compound 18] the figure was 100 to 1000 nM; with `C[C@H]1Cc2noc(-c3ccc(C#N)cc3)c2CN1C(=O)Nc1cc(F)c(F)c(F)c1` [Compound 19], 100 to 1000 nM; with `COc1cccc(-c2onc3c2CN(C(=O)Nc2cc(F)c(F)c(F)c2)[C@@H](C)C3)c1` [Compound 20], 100 to 1000 nM.
Regarding `C[C@H]1Cc2noc(-c3cccc(F)c3)c2CN1C(=O)Nc1cc(F)c(F)c(F)c1` [Compound 21], the EC50 is 100 to 1000 nM.
As for `C[C@H]1Cc2noc(-c3cccc(Cl)c3)c2CN1C(=O)Nc1cc(F)c(F)c(F)c1` [Compound 22], the figure is no less than 1000 nM; as for `Cc1cccc(-c2onc3c2CN(C(=O)Nc2cc(F)c(F)c(F)c2)[C@@H](C)C3)c1` [Compound 23], no less than 1000 nM.
With `C[C@H]1Cc2noc(-c3ccc(OC(F)F)cc3)c2CN1C(=O)Nc1cc(F)c(F)c(F)c1` [Compound 24] the figure was 100 to 1000 nM; with `Cc1cc(-c2onc3c2CN(C(=O)Nc2cc(F)c(F)c(F)c2)[C@@H](C)C3)no1` [Compound 25, (S)-6-methyl-3-(5-methylisoxazol-3-yl)-N-(3,4,5-trifluorophenyl)-6,7-dihydroisoxazolo[4,3-c]pyridine-5(4H)-carboxamide], 100 to 1000 nM.
As for `Cc1cc(-c2onc3c2[C@H](C)N(C(=O)Nc2cc(F)c(F)c(F)c2)CC3)no1` [Compound 26, (S)-4-methyl-3-(5-methylisoxazol-3-yl)-N-(3,4,5-trifluorophenyl)-6,7-dihydroisoxazolo[4,3-c]pyridine-5(4H)-carboxamide], the figure is no less than 1000 nM; as for `C[C@H]1Cc2noc(-c3ccc(F)cn3)c2CN1C(=O)Nc1cc(F)c(F)c(F)c1` [Compound 27, (S)-3-(5-fluoropyridin-2-yl)-6-methyl-N-(3,4,5-trifluorophenyl)-6,7-dihydroisoxazolo[4,3-c]pyridine-5(4H)-carboxamide], 100 to 1000 nM; as for `C[C@H]1c2c(noc2-c2ccc(F)cn2)CCN1C(=O)Nc1cc(F)c(F)c(F)c1` [Compound 28, (S)-3-(5-fluoropyridin-2-yl)-4-methyl-N-(3,4,5-trifluorophenyl)-6,7-dihydroisoxazolo[4,3-c]pyridine-5(4H)-carboxamide], 100 to 1000 nM.
For the compound `Cc1nc(-c2onc3c2CN(C(=O)Nc2cc(F)c(F)c(F)c2)[C@@H](C)C3)cs1` [Compound 29, (S)-6-methyl-3-(2-methylthiazol-4-yl)-N-(3,4,5-trifluorophenyl)-6,7-dihydroisoxazolo[4,3-c]pyridine-5(4H)-carboxamide], the EC50 fell in the range of 100 to 1000 nM.
As for `Cc1nc(-c2onc3c2[C@H](C)N(C(=O)Nc2cc(F)c(F)c(F)c2)CC3)cs1` [Compound 30, (S)-4-methyl-3-(2-methylthiazol-4-yl)-N-(3,4,5-trifluorophenyl)-6,7-dihydroisoxazolo[4,3-c]pyridine-5(4H)-carboxamide], the figure is no less than 1000 nM; as for `C[C@H]1Cc2noc(-c3cnn(C)c3)c2CN1C(=O)Nc1cc(F)c(F)c(F)c1` [Compound 31], 100 to 1000 nM; as for `C[C@H]1c2c(noc2-c2cnn(C)c2)CCN1C(=O)Nc1cc(F)c(F)c(F)c1` [Compound 32], no less than 1000 nM.
With `C[C@H]1Cc2noc(-c3ccn(C)n3)c2CN1C(=O)Nc1cc(F)c(F)c(F)c1` [Compound 33] the figure was less than 100 nM; with `C[C@H]1c2c(noc2-c2ccn(C)n2)CCN1C(=O)Nc1cc(F)c(F)c(F)c1` [Compound 34], no less than 1000 nM; with `Cc1nc(-c2onc3c2CN(C(=O)Nc2cc(F)c(F)c(F)c2)[C@@H](C)C3)co1` [Compound 35], 100 to 1000 nM.
With `Cc1nc(-c2onc3c2[C@H](C)N(C(=O)Nc2cc(F)c(F)c(F)c2)CC3)co1` [Compound 36] the figure was no less than 1000 nM; with `C[C@H]1Cc2noc(-c3cn(C)nn3)c2CN1C(=O)Nc1cc(F)c(F)c(F)c1` [Compound 37], 100 to 1000 nM; with `C[C@H]1c2c(noc2-c2cn(C)nn2)CCN1C(=O)Nc1cc(F)c(F)c(F)c1` [Compound 38], no less than 1000 nM.
Regarding `Cc1nc(-c2onc3c2CN(C(=O)Nc2cc(F)c(F)c(F)c2)[C@@H](C)C3)c(C)o1` [Compound 39], the EC50 is 100 to 1000 nM.
As for `Cc1nc(-c2onc3c2[C@H](C)N(C(=O)Nc2cc(F)c(F)c(F)c2)CC3)c(C)o1` [Compound 40], the figure is no less than 1000 nM.
With `Cc1nc(-c2onc3c2CN(C(=O)Nc2cc(F)c(F)c(F)c2)[C@@H](C)C3)no1` [Compound 41] the figure was 100 to 1000 nM; with `Cc1nc(-c2onc3c2[C@H](C)N(C(=O)Nc2cc(F)c(F)c(F)c2)CC3)no1` [Compound 42], 100 to 1000 nM; with `C[C@H]1Cc2noc(C3CCCC3)c2CN1C(=O)Nc1cc(F)c(F)c(F)c1` [Compound 43], 100 to 1000 nM.
For `C[C@H]1c2c(noc2C2CCCC2)CCN1C(=O)Nc1cc(F)c(F)c(F)c1` [Compound 44], the EC50 is no less than 1000 nM.

A word on the EC50: it is the concentration needed to bring the measured effect to its halfway point.
